What all share (assay type): cell-based
The target of one test is T1, Rat α6/3β2β3 (Rattus norvegicus, UniProt P04757+P12390+P12391+P43143).
T1 construct: evaluation of the effects of the α6 extracellular domain; remainder of rat α3 subunit (transmembrane and intracellular part); expressed in transfected cells; host or cells: Xenopus laevis oocytes injected with subunit cRNAs; α6/3 clone from Michael McIntosh (University of Utah), corrected in house by QuickChange
In words: Voltage clamp of Xenopus oocytes expressing α6/3 chimera with β2 and β3. How it is done:
(§1) Mature (>9 cm) female Xenopus laevis African frogs (NASCO, Ft. Atkinson, Wis.) were used as a source of oocytes. Prior to surgery, frogs were anesthetized by placing the animal in a 1.5 g/l solution of MS222 (3-aminobenzoic acid ethyl ester) for 30 minutes. Oocytes were removed from an incision made in the abdomen.
(§2) In order to remove the follicular cell layer, harvested oocytes were treated with 1.25 mg/ml collagenase from Worthington Biochemical Corporation (Freehold, N.J.) for 2 hours at room temperature in calcium-free Barth's solution (88 mM NaCl, 10 mM HEPES pH 7.6, 0.33 mM MgSO4, 0.1 mg/ml gentamicin sulfate). Subsequently, stage 5 oocytes were isolated and injected with 50 nl (5-20 ng) each of the appropriate subunit cRNAs. Recordings were made 2 to 15 days after injection.
Rat neuronal nAChR clones and mouse muscle nAChR cDNA clones were used. The wild-type clones were obtained from Dr. Jim Boulter (UCLA). The rat α6/3 (Dowell et al. J Neurosci, 2003, 23:8445-8452) clone was obtained from Michael McIntosh (University of Utah) and expressed in Xenopus oocytes in combinations with rat β2 and β3. […] The TM2 domain is understood to line the pore of the channel, with alpha helix structure. The 7′ position may actually be directed away from the actual pore lining, but this residue is highly conserved in all of the nAChR. It is valine in all of them except α9 (isoleucine) and β1, where it is alanine. The TM2 mutation in the α6/3 chimera was corrected by using QuickChange (Stratagene) according to their protocols. The corrected α6/3 chimera sequence was confirmed by restriction diagnostics and by automated fluorescent sequencing (University of Florida core facility). The corrected clone was expressed as above in Xenopus oocytes with β2 and β3 and compared to the wild-type α3 co-expressed with β2 and β3.
(§3) After linearization and purification of cloned cDNAs, RNA transcripts were prepared in vitro using the appropriate mMessage mMachine kit from Ambion Inc. (Austin, Tex.).
(§4) Electrophysiology. The majority of experiments were conducted using OpusXpress 6000A (Axon Instruments, Union City Calif.). OpusXpress is an integrated system that provides automated impalement and voltage clamp of up to eight oocytes in parallel. Cells were automatically perfused with bath solution, and agonist solutions were delivered from a 96-well plate. Both the voltage and current electrodes were filled with 3 M KCl. The agonist solutions were applied via disposable tips, which eliminated any possibility of cross-contamination. Drug applications alternated between ACh controls and experimental applications. Flow rates were set at 2 ml/min for experiments with α7 receptors and 4 ml/min for other subtypes. Cells were voltage-clamped at a holding potential of −60 mV. Data were collected at 50 Hz and filtered at 20 Hz. Agonist applications were 12 seconds in duration followed by 181-second washout periods for α7 receptors and 8 seconds with 241-second wash periods for other subtypes. For some experiments, particularly under conditions where residual inhibition precluded making repeated measurements from single cells (see below), manual oocyte recordings were made as previously described (Papke and Papke Br J of Pharmacol, 2002, 137:49-61). In brief, Warner Instruments (Hamden, Conn.) OC-725C oocyte amplifiers were used, and data were acquired with a minidigi or digidata 1200A with pClamp9 software (Axon Instruments). Sampling rates were between 10 and 20 Hz and the data were filtered at 6 Hz. […]

The target in another test is Rat α3β4β3 (Rattus norvegicus, UniProt P04757+P12391+P12392). In words: Voltage clamp of Xenopus oocytes expressing α3β4β3 nAChR. Also noted: Rat neuronal nAChR clones and mouse muscle nAChR cDNA clones were used; The wild-type clones were obtained from Dr. Jim Boulter (UCLA). How it is done: as §1, §2
Rat neuronal nAChR clones and mouse muscle nAChR cDNA clones were used. The wild-type clones were obtained from Dr. Jim Boulter (UCLA). The rat α6/3 (Dowell et al. J Neurosci, 2003, 23:8445-8452) clone was obtained from Michael McIntosh (University of Utah) and expressed in Xenopus oocytes in combinations with rat β2 and β3. […] The TM2 domain is understood to line the pore of the channel, with alpha helix structure. […] The corrected clone was expressed as above in Xenopus oocytes with β2 and β3 and compared to the wild-type α3 co-expressed with β2 and β3. […]

The target of a further test is T2, Human α3β2α5 (Homo sapiens, UniProt P17787+P30532+P32297).
T2 construct: expressed in transfected cells; host or cells: Xenopus laevis oocytes injected with subunit cRNAs
Put plainly: Voltage clamp of Xenopus oocytes expressing human α3β2α5 nAChR. How it is done:
as §1, §2, §3
as §4, with “137:49-61).” for “137:49-61). In brief, Warner Instruments (Hamden, Conn.) OC-725C oocyte amplifiers were used, and data were acquired with a minidigi or digidata 1200A with pClamp9 software (Axon Instruments). Sampling rates were between 10 and 20 Hz and the data were filtered at 6 Hz.”
Experimental protocols and data analysis. […] In other experiments (Papke et al. J. Neurochem., 2000, 75:204-216; Papke and Papke Br J of Pharmacol, 2002, 137:49-61) these concentrations were determined to be the EC74, EC15, EC22, EC17, EC40, EC70, EC55, EC70 and EC100, respectively. […]
Responses to experimental drug applications were calculated relative to the preceding ACh control responses in order to normalize the data, compensating for the varying levels of channel expression among the oocytes. […]

The mark [1] stands for this setting: inhibition still present after 5-minute wash, read-out: IC50 (recovery).

Results on one compound are retold here after patent US7531555B2, “Compositions and methods for selective inhibition of nicotine acetylcholine receptors” (University of Florida Research Foundation, Inc., priority 2003, dated 2009).

Like-named read-outs stand apart in the source and are kept apart here.

A word on the IC50: it is the concentration that inhibits the measured activity by half.

T1 sequence (P43143+P04757 fused with the stated changes): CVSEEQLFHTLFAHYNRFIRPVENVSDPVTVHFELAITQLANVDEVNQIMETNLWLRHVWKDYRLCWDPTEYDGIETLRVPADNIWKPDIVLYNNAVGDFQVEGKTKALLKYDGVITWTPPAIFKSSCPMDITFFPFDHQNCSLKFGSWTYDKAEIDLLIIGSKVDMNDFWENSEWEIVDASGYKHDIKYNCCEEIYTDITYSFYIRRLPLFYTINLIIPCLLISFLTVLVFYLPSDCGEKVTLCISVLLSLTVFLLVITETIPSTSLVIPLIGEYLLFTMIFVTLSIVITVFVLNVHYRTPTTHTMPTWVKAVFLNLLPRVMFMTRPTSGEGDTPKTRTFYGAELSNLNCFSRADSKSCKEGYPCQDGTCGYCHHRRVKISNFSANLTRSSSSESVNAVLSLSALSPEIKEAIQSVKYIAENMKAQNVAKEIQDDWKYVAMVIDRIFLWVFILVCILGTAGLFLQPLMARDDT
T1 sequence (P12390 25-500): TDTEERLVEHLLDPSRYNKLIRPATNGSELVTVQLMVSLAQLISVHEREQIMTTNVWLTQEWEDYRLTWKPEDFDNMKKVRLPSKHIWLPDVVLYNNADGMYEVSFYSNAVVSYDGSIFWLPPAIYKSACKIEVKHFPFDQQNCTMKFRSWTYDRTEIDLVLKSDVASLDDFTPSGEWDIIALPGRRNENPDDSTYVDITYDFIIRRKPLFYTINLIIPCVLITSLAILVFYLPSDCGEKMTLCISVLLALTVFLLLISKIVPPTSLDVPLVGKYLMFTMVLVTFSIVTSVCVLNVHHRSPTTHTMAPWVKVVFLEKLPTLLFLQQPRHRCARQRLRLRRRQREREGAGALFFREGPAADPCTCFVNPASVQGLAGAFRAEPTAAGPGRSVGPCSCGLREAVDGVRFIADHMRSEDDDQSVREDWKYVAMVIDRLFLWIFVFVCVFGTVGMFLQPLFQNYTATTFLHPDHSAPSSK
T1 sequence (P12391 31-464): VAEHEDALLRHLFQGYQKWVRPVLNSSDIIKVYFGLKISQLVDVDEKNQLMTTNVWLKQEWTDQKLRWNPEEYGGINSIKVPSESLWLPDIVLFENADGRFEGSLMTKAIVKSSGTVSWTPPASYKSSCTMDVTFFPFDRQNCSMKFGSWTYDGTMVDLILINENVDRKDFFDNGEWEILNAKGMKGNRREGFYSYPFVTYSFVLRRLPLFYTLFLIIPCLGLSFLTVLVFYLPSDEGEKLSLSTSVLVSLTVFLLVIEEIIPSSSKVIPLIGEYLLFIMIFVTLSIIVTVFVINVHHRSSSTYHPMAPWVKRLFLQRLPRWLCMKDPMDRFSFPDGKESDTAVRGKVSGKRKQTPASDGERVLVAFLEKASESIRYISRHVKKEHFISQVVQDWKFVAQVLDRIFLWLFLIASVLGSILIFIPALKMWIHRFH
T2 sequence (P32297 32-505): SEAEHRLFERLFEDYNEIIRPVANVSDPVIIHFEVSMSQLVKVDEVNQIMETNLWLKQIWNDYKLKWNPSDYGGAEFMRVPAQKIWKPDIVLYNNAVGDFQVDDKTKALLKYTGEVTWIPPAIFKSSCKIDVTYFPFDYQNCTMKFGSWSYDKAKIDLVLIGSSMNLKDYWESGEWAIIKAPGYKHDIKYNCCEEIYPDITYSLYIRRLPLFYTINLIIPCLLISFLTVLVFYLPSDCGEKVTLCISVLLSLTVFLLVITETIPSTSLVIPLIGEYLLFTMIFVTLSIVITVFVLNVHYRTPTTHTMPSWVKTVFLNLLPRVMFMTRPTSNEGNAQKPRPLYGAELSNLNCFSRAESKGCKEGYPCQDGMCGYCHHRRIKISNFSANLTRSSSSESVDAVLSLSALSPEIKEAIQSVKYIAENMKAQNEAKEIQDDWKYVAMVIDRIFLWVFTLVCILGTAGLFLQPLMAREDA
T2 sequence (P17787 26-502): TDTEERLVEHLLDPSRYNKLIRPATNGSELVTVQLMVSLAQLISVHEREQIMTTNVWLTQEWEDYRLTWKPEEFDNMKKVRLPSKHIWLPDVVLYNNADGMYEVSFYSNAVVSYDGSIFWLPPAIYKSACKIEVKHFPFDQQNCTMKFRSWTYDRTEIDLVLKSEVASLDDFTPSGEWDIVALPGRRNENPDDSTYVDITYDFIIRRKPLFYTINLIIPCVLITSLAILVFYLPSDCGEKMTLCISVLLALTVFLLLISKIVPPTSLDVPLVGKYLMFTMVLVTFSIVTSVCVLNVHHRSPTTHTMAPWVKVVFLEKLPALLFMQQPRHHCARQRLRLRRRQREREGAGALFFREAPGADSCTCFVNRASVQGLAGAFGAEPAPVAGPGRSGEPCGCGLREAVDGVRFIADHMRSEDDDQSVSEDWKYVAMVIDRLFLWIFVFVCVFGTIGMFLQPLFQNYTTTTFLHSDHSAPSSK
T2 sequence (P30532 23-468): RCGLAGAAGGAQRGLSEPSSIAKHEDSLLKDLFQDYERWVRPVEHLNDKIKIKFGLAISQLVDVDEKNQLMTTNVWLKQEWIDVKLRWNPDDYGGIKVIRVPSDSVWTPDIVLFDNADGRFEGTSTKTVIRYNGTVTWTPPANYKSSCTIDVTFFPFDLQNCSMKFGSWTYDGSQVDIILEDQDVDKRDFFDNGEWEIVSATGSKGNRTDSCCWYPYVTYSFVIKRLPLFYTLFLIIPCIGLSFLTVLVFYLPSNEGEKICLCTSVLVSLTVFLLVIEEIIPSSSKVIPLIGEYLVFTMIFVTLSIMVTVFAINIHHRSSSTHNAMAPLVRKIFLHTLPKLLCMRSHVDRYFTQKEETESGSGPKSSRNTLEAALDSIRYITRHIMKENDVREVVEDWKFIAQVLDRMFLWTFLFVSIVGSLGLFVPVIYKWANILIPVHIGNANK
Chain of Rat α3β4β3 (P04757 26-499): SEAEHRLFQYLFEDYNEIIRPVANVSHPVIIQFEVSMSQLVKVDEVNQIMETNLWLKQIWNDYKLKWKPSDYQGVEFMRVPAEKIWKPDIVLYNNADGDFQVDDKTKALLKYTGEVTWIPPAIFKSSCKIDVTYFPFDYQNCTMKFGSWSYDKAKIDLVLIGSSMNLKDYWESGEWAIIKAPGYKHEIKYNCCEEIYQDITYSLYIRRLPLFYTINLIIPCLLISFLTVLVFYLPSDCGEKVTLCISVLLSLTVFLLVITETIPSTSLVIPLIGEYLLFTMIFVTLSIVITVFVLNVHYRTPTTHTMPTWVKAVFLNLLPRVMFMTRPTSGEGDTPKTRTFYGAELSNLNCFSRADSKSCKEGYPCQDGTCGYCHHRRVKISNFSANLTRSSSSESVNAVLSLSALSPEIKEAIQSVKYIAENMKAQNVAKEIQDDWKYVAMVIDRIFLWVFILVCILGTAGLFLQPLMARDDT
Chain of Rat α3β4β3 (P12392 21-495): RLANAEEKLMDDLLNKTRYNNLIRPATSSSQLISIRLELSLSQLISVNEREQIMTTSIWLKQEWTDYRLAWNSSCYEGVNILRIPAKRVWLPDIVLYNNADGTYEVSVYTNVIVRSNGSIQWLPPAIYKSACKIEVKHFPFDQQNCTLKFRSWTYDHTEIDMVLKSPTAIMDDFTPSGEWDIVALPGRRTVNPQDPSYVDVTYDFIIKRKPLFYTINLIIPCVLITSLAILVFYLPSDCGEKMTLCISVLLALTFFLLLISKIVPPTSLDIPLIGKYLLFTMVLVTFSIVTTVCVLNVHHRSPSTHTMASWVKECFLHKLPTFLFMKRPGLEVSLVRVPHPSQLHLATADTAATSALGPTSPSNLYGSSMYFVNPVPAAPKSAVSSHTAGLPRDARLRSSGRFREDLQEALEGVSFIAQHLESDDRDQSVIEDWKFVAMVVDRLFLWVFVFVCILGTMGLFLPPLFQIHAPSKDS
Chain of Rat α3β4β3 (P12391 31-464): as the sequence (P12391 31-464) above

As to `CCCCCCC(=O)OC1CC(C)(C)NC(C)(C)C1` [TMPH, 2,2,6,6-tetramethylpiperidin-4-yl heptanoate], the IC50 on Rat α6/3β2β3 (decrease in net charge, 100 μM ACh co-applied with TMPH, read-out: IC50 (area)) is 1000 ± 300 nM; on Rat α6/3β2β3 (decrease in peak current amplitude, 100 μM ACh co-applied with TMPH, read-out: IC50 (peak)), 60000 ± 20000 nM; at Rat α6/3β2β3 (setting [1]), 2300 ± 500 nM; at Rat α3β4β3 (inhibition still present after 5-minute wash, read-out: IC50 (recovery), 2 site model, site with approximately 15% of the fit), 1000 nM; at Human α3β2α5 (decrease in net charge, 1 μM ACh co-applied with TMPH, read-out: IC50 (area)), 430 ± 180 nM; at Human α3β2α5 (decrease in peak current amplitude, 1 μM ACh co-applied with TMPH, read-out: IC50 (peak)) it was 1100 nM. Moreover, the IC50 on Human α3β2α5 (setting [1]) is 750 ± 200 nM. The “IC50 net charge/IC50 peak” value on Rat α6/3β2β3 (ratio) is reported as “.017”. Moreover, the “IC50 recovery/IC50 net charge” value at Rat α6/3β2β3 (ratio) worked out at 2.0; at Human α3β2α5 (ratio), 1.7. Besides, the “IC50 recovery/IC50 net charge, 2-site model, first value” at Rat α3β4β3 (ratio, recovery site of IC50 1.0 μM) turned out to be 0.7.
